± gives the expanded uncertainty stated by the source.
How the values were obtained:
[1] = refractive index (Na D-line) (dimensionless); settings: 100 kPa, Liquid, Standard Abbe refractometry
[2] = 100 kPa, Liquid; for speed of sound: Frequency=3 MHz, Sing-around technique in a fixed-path interferometer; for mass density: Vibrating tube method
[3] = refractive index (Na D-line) (dimensionless); xn = mol fraction of the nth substance listed; settings: 100 kPa, Liquid, Standard Abbe refractometry, x2 = 0
[4] = xn = mol fraction of the nth substance listed; settings: 100 kPa, Liquid, x2 = 0; for speed of sound: Frequency=3 MHz, Sing-around technique in a fixed-path interferometer; for mass density: Vibrating tube method

| SMILES | refractive index ([1]; 298.15 K) | refractive index ([1]; 308.15 K) | refractive index ([1]; 318.15 K) | speed of sound ([2]; 298.15 K) | mass density ([2]; 298.15 K) | speed of sound ([2]; 308.15 K) | mass density ([2]; 308.15 K) | speed of sound ([2]; 318.15 K) | mass density ([2]; 318.15 K) | refractive index ([3]; 298.15 K) | refractive index ([3]; 308.15 K) | refractive index ([3]; 318.15 K) | speed of sound ([4]; 298.15 K) | mass density ([4]; 298.15 K) | speed of sound ([4]; 308.15 K) | mass density ([4]; 308.15 K) | speed of sound ([4]; 318.15 K) | mass density ([4]; 318.15 K) |
| --- | --- | --- | --- | --- | --- | --- | --- | --- | --- | --- | --- | --- | --- | --- | --- | --- | --- | --- |
| CCCCCCCC[n+]1ccn(C)c1.F[B-](F)(F)F [1-methyl-3-octylimidazolium tetrafluoroborate] | 1.43253 ± 0.0017 | 1.42984 ± 0.0017 | 1.42715 ± 0.0017 | 1485.1 ± 2.3 m/s | 1105.02 ± 1.1 kg/m3 | 1458.5 ± 2.3 m/s | 1098.32 ± 1 kg/m3 | 1433.2 ± 2.3 m/s | 1091.54 ± 1 kg/m3 | – | – | – | – | – | – | – | – | – |
| CCCCO [butan-1-ol] + CCCCCCCC[n+]1ccn(C)c1.F[B-](F)(F)F | – | – | – | – | – | – | – | – | – | 1.39728 ± 0.0016 | 1.39324 ± 0.0016 | 1.38911 ± 0.0016 | 1242.4 ± 1.2 m/s | 805.76 ± 0.2 kg/m3 | 1207.5 ± 1.2 m/s | 798.05 ± 0.2 kg/m3 | 1171.5 ± 1.2 m/s | 790.21 ± 0.2 kg/m3 |
| CC(C)(C)O [2-methylpropan-2-ol] | 1.38488 ± 0.0016 | 1.37985 ± 0.0016 | 1.37402 ± 0.0016 | 1121.4 ± 1.3 m/s | 780.72 ± 0.23 kg/m3 | 1082 ± 1.3 m/s | 770.21 ± 0.23 kg/m3 | 1038.2 ± 1.3 m/s | 759.5 ± 0.23 kg/m3 | – | – | – | – | – | – | – | – | – |
| CC(C)(C)O [2-methylpropan-2-ol] + CCCCCCCC[n+]1ccn(C)c1.F[B-](F)(F)F | – | – | – | – | – | – | – | – | – | 1.38488 ± 0.0016 | 1.37985 ± 0.0016 | 1.37402 ± 0.0016 | 1121.4 ± 1.3 m/s | 780.72 ± 0.23 kg/m3 | 1082 ± 1.3 m/s | 770.21 ± 0.23 kg/m3 | 1038.2 ± 1.3 m/s | 759.5 ± 0.23 kg/m3 |
| CCCCO [butan-1-ol] | 1.39728 ± 0.0016 | 1.39324 ± 0.0016 | 1.38911 ± 0.0016 | 1242.4 ± 1.2 m/s | 805.76 ± 0.2 kg/m3 | 1207.5 ± 1.2 m/s | 798.05 ± 0.2 kg/m3 | 1171.5 ± 1.2 m/s | 790.21 ± 0.2 kg/m3 | – | – | – | – | – | – | – | – | – |

Other lines, results leading:

| refractive index ([1]; 298.15 K) | refractive index ([1]; 308.15 K) | refractive index ([1]; 318.15 K) | speed of sound ([2]; 298.15 K) | mass density ([2]; 298.15 K) | speed of sound ([2]; 308.15 K) | mass density ([2]; 308.15 K) | speed of sound ([2]; 318.15 K) | mass density ([2]; 318.15 K) | refractive index ([3]; 298.15 K) | refractive index ([3]; 308.15 K) | refractive index ([3]; 318.15 K) | speed of sound ([4]; 298.15 K) | mass density ([4]; 298.15 K) | speed of sound ([4]; 308.15 K) | mass density ([4]; 308.15 K) | speed of sound ([4]; 318.15 K) | mass density ([4]; 318.15 K) | SMILES |
| --- | --- | --- | --- | --- | --- | --- | --- | --- | --- | --- | --- | --- | --- | --- | --- | --- | --- | --- |
| 1.39408 ± 0.0016 | 1.38925 ± 0.0016 | 1.38444 ± 0.0016 | 1189 ± 1.4 m/s | 797.82 ± 0.22 kg/m3 | 1155.9 ± 1.3 m/s | 790.63 ± 0.23 kg/m3 | 1118.6 ± 1.3 m/s | 781.98 ± 0.23 kg/m3 | – | – | – | – | – | – | – | – | – | CC(C)CO [2-methyl-1-propanol] |
| – | – | – | – | – | – | – | – | – | 1.39408 ± 0.0016 | 1.38925 ± 0.0016 | 1.38444 ± 0.0016 | 1189 ± 1.4 m/s | 797.82 ± 0.22 kg/m3 | 1155.9 ± 1.3 m/s | 790.63 ± 0.23 kg/m3 | 1118.6 ± 1.3 m/s | 781.98 ± 0.23 kg/m3 | CC(C)CO [2-methyl-1-propanol] + CCCCCCCC[n+]1ccn(C)c1.F[B-](F)(F)F |
